Assay [1] concerns the target T1, hAT1R (Homo sapiens, UniProt P30556).
T1 sequence (P30556 1-359): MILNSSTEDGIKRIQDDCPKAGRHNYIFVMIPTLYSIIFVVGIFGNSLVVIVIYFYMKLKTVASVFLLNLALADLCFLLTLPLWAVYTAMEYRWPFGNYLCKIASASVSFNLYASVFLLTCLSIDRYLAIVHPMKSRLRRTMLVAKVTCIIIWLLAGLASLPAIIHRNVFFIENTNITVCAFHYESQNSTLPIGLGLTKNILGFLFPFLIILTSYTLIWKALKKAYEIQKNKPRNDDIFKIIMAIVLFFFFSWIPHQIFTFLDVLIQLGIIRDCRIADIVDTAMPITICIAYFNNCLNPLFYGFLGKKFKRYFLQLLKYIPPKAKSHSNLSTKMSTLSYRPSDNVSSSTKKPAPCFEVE
Put plainly: FLIPR calcium flux assay, Part II: antagonist activity against Angiotensin II. As to hAT1R Antagonist Efficacy Antag (%) Ave: Angiotensin II 10 nM final concentration. It counts as cell-based. Particulars: for Emax: read-out: hAT1R Antagonist Efficacy Antag (%) Ave; for IC50: read-out: hAT1R Antagonist IC50 Ave. A general note: A change in cytosolic calcium serves as a functional read-out for many receptors and channels.

In assay [2] the target is T1, hAT1R. Kind of assay: FLIPR calcium flux assay, Part I: agonist activity. In kind it is cell-based. Conditions: ChanTest hAT1R stable cells; % MPE, percent of the maximal possible effect; read-out: hAT1R Agonist Efficacy Agonist (%) Ave.

Drawing on patent publication US10344054B2, “Angiotensin-1-receptor antagonists” (Ferring B.V., priority 2016, dated 2019), this text covers Emax and IC50 for 14 compounds.

Starred links: 1 amine or outer side, 2 acyl side, 3 side chain; linkers in the order of their positions; H or OH if unused. Non-standard residues stand in square brackets, D forms with d. Residues, ends and D or L forms follow the SMILES beside them. X1 = O=C(CN(C[C@H](O)[C@@H](O)[C@H](O)[C@H](O)CO)[*:1])[*:2]; dPhe(2-Ph) = N[C@H](Cc1ccccc1-c1ccccc1)C(=O)O; dPhe(2-Cl) = N[C@H](Cc1ccccc1Cl)C(=O)O; dPhe(2-Me) = Cc1ccccc1C[C@@H](N)C(=O)O; d1Nal = N[C@H](Cc1cccc2ccccc12)C(=O)O; dBta = N[C@H](Cc1csc2ccccc12)C(=O)O; Gly(cPent) = N[C@H](C(=O)O)C1CCCC1; Chg = N[C@H](C(=O)O)C1CCCCC1

Broadly, the IC50 is the concentration needed to halve the response being measured. Consider `CNCC(=O)N[C@@H](CCCNC(=N)N)C(=O)N[C@H](C(=O)N[C@@H](Cc1ccc(O)cc1)C(=O)N[C@H](C(=O)N[C@@H](Cc1c[nH]cn1)C(=O)N1CCC[C@H]1C(=O)N[C@H](Cc1ccccc1-c1ccccc1)C(=O)O)C1CCCCC1)C(C)C` [Compound 36, Sar-Arg-Val-Tyr-Chg-His-Pro-(D-Phe(2-Ph))—OH] (HELM PEPTIDE1{[Sar].R.V.Y.[O=C([C@@H](N[*:1])C1CCCCC1)[*:2]].H.P.[O=C(O)[C@@H](Cc1ccccc1-c1ccccc1)N[*:1]]}$$$$V2.0), for which, on hAT1R [1], the Emax amounted to 100% and the IC50 was 26 nM. Besides, the Emax on hAT1R [2] amounted to 13%.

In the case of `CC(C)[C@H](NC(=O)[C@H](CCCNC(=N)N)NC(=O)CNC[C@H](O)[C@@H](O)[C@H](O)[C@H](O)CO)C(=O)N[C@@H](Cc1ccc(O)cc1)C(=O)N[C@H](C(=O)N[C@@H](Cc1c[nH]cn1)C(=O)N1CCC[C@H]1C(=O)N[C@H](Cc1cccc2ccccc12)C(=O)O)C(C)C` [Compound 37, Glac-Arg-Val-Tyr-Val-His-Pro-(D-1Nal)-OH] (HELM PEPTIDE1{[O=C(CNC[C@H](O)[C@@H](O)[C@H](O)[C@H](O)CO)[*:2]].R.V.Y.V.H.P.[O=C(O)[C@@H](Cc1cccc2ccccc12)N[*:1]]}$$$$V2.0), the Emax on hAT1R [1] was 99%; at hAT1R [2], 7%. Moreover, on hAT1R [1], the IC50 was determined as 19.5 nM.

As to `CC(C)[C@H](NC(=O)[C@H](CCCNC(=N)N)NC(=O)CNC[C@H](O)[C@@H](O)[C@H](O)[C@H](O)CO)C(=O)N[C@@H](Cc1ccc(O)cc1)C(=O)N[C@H](C(=O)N[C@@H](Cc1c[nH]cn1)C(=O)N1CCC[C@H]1C(=O)N[C@H](Cc1csc2ccccc12)C(=O)O)C(C)C` [Compound 38, Glac-Arg-Val-Tyr-Val-His-Pro-(D-(3-benzothienyl)alanine)-OH] (HELM PEPTIDE1{[O=C(CNC[C@H](O)[C@@H](O)[C@H](O)[C@H](O)CO)[*:2]].R.V.Y.V.H.P.[O=C(O)[C@@H](Cc1csc2ccccc12)N[*:1]]}$$$$V2.0), the figures for the Emax at hAT1R [1] and on hAT1R [2] were 101% and 5%, respectively. Also, on hAT1R [1], the IC50 was 18.8 nM.

Turning to `CC(C)[C@H](NC(=O)[C@H](CCCNC(=N)N)NC(=O)CNC[C@H](O)[C@@H](O)[C@H](O)[C@H](O)CO)C(=O)N[C@@H](Cc1ccc(O)cc1)C(=O)N[C@H](C(=O)N[C@@H](Cc1c[nH]cn1)C(=O)N1CCC[C@H]1C(=O)N[C@H](Cc1ccccc1-c1ccccc1)C(=O)O)C(C)C` [Compound 39, Glac-Arg-Val-Tyr-Val-His-Pro-(D-Phe(2-Ph))—OH] (HELM PEPTIDE1{[O=C(CNC[C@H](O)[C@@H](O)[C@H](O)[C@H](O)CO)[*:2]].R.V.Y.V.H.P.[O=C(O)[C@@H](Cc1ccccc1-c1ccccc1)N[*:1]]}$$$$V2.0), on hAT1R [1], the Emax is 101% and the IC50 came out at 26.7 nM. Further, the Emax at hAT1R [2] stood at 8%.

As for `CC(C)[C@H](NC(=O)[C@H](CCCNC(=N)N)NC(=O)CNC[C@H](O)[C@@H](O)[C@H](O)[C@H](O)CO)C(=O)N[C@@H](Cc1ccc(O)cc1)C(=O)N[C@H](C(=O)N[C@@H](Cc1c[nH]cn1)C(=O)N1CCC[C@H]1C(=O)N[C@H](Cc1cccc2ccccc12)C(=O)O)C1CCCCC1` [Compound 40, Glac-Arg-Val-Tyr-Chg-His-Pro-(D-1Nal)-OH] (H-[X1]RVY[Chg]HP[d1Nal]-OH), on hAT1R [1], the Emax stood at 101% and the IC50 was 21.9 nM. Besides, the Emax at hAT1R [2] turned out to be 5%.

On to `CC(C)[C@H](NC(=O)[C@H](CCCNC(=N)N)NC(=O)CNC[C@H](O)[C@@H](O)[C@H](O)[C@H](O)CO)C(=O)N[C@@H](Cc1ccc(O)cc1)C(=O)N[C@H](C(=O)N[C@@H](Cc1c[nH]cn1)C(=O)N1CCC[C@H]1C(=O)N[C@H](Cc1csc2ccccc12)C(=O)O)C1CCCCC1` [Compound 41, Glac-Arg-Val-Tyr-Chg-His-Pro-(D-(3-benzothienyl)alanine)-OH] (H-[X1]RVY[Chg]HP[dBta]-OH), for which, at hAT1R [1], the Emax is 101% and the IC50 is 19.1 nM. The Emax at hAT1R [2] came out at 5%.

Regarding `CC(C)[C@H](NC(=O)[C@H](CCCNC(=N)N)NC(=O)CNC[C@H](O)[C@@H](O)[C@H](O)[C@H](O)CO)C(=O)N[C@@H](Cc1ccc(O)cc1)C(=O)N[C@H](C(=O)N[C@@H](Cc1c[nH]cn1)C(=O)N1CCC[C@H]1C(=O)N[C@H](Cc1ccccc1-c1ccccc1)C(=O)O)C1CCCCC1` [Compound 42, Glac-Arg-Val-Tyr-Chg-His-Pro-(D-Phe(2-Ph))—OH] (H-[X1]RVY[Chg]HP[dPhe(2-Ph)]-OH), the figures for the Emax at hAT1R [1] and at hAT1R [2] were 101% and 10%, respectively. Besides, on hAT1R [1], the 50% inhibitory concentration (IC50) worked out at 28.5 nM.

`CC(C)[C@H](NC(=O)[C@H](CCCNC(=N)N)NC(=O)CNC[C@H](O)[C@@H](O)[C@H](O)[C@H](O)CO)C(=O)N[C@@H](Cc1ccc(O)cc1)C(=O)N[C@H](C(=O)N[C@@H](Cc1c[nH]cn1)C(=O)N1CCC[C@H]1C(=O)N[C@H](Cc1ccccc1Cl)C(=O)O)C1CCCC1` [Compound 43, Glac-Arg-Val-Tyr-Cpg-His-Pro-(D-Phe(2-Cl))—OH] (H-[X1]RVY[Gly(cPent)]HP[dPhe(2-Cl)]-OH): the Emax at hAT1R [1] is 100%; on hAT1R [2], 6%. The 50% inhibitory concentration (IC50) at hAT1R [1] turned out to be 16.6 nM.

`Cc1ccccc1C[C@@H](NC(=O)[C@@H]1CCCN1C(=O)[C@H](Cc1c[nH]cn1)NC(=O)[C@@H](NC(=O)[C@H](Cc1ccc(O)cc1)NC(=O)[C@@H](NC(=O)[C@H](CCCNC(=N)N)NC(=O)CNC[C@H](O)[C@@H](O)[C@H](O)[C@H](O)CO)C(C)C)C1CCCC1)C(=O)O` [Compound 44, Glac-Arg-Val-Tyr-Cpg-His-Pro-(D-Phe(2-Me))—OH] (H-[X1]RVY[Gly(cPent)]HP[dPhe(2-Me)]-OH): the Emax worked out at 101% at hAT1R [1] and 7% at hAT1R [2]. Also, the IC50 at hAT1R [1] was 20.4 nM.

As to `Cc1ccccc1C[C@@H](NC(=O)[C@@H]1CCCN1C(=O)[C@H](Cc1c[nH]cn1)NC(=O)[C@@H](NC(=O)[C@H](Cc1ccc(O)cc1)NC(=O)[C@@H](NC(=O)[C@H](CCCNC(=N)N)NC(=O)CNC[C@H](O)[C@@H](O)[C@H](O)[C@H](O)CO)C(C)C)C(C)C)C(=O)O` [Compound 45, Glac-Arg-Val-Tyr-Val-His-Pro-(D-Phe(2-Me))—OH] (HELM PEPTIDE1{[O=C(CNC[C@H](O)[C@@H](O)[C@H](O)[C@H](O)CO)[*:2]].R.V.Y.V.H.P.[Cc1ccccc1C[C@@H](N[*:1])C(=O)O]}$$$$V2.0), at hAT1R [1], the Emax came out at 101% and the IC50 was found to be 18.6 nM. The Emax on hAT1R [2] was found to be 6%.

As to `Cc1ccccc1C[C@@H](NC(=O)[C@@H]1CCCN1C(=O)[C@H](Cc1c[nH]cn1)NC(=O)[C@@H](NC(=O)[C@H](Cc1ccc(O)cc1)NC(=O)[C@@H](NC(=O)[C@H](CCCNC(=N)N)NC(=O)CNC[C@H](O)[C@@H](O)[C@H](O)[C@H](O)CO)C(C)C)C1CCCCC1)C(=O)O` [Compound 46, Glac-Arg-Val-Tyr-Chg-His-Pro-(D-Phe(2-Me))—OH] (H-[X1]RVY[Chg]HP[dPhe(2-Me)]-OH), on hAT1R [1], the Emax stood at 100% and the IC50 stood at 22.2 nM. Besides, on hAT1R [2], the Emax worked out at 6%.

Take `CC[C@H](C)[C@H](NC(=O)[C@@H]1CCCN1C(=O)[C@H](Cc1c[nH]cn1)NC(=O)[C@@H](NC(=O)[C@H](Cc1ccc(O)cc1)NC(=O)[C@@H](NC(=O)[C@H](CCCNC(=N)N)NC(=O)CNC)C(C)C)[C@@H](C)CC)C(=O)O` [Ref. Cpd. 1, Sar-Arg-Val-Tyr-Ile-His-Pro-Ile-OH, reference compound]: the Emax on hAT1R [1] amounted to 99%; on hAT1R [2], 42%.

As to `CC[C@H](C)[C@H](NC(=O)[C@H](Cc1ccc(O)cc1)NC(=O)[C@@H](NC(=O)[C@H](CCCNC(=N)N)NC(=O)CNC)C(C)C)C(=O)N[C@@H](Cc1c[nH]cn1)C(=O)N1CCC[C@H]1C(=O)N[C@H](Cc1ccccc1)C(=O)O` [Ref. Cpd. 2, Sar-Arg-Val-Tyr-Ile-His-Pro-D-Phe-OH, reference compound], at hAT1R [1], the Emax is 99% and the IC50 was determined as 14.3 nM. For the same compound, the Emax on hAT1R [2] amounted to 25%.

With `CCCCC(=O)N(Cc1ccc(-c2ccccc2-c2nnn[nH]2)cc1)[C@H](C(=O)O)C(C)C` [Ref. Cpd. 4, Valsartan, reference compound], the Emax at hAT1R [1] is 100%; at hAT1R [2] it was 0.7%.
